The values below come from patent publication US20240101585A1, “HETEROAROMATIC PHOSPHONIUM SALTS AND THEIR USE TREATING CANCER” (FLORATEK PHARMA AG, priority 2021, published 2024).

The subject of data set [1] is MDA-MB-468. The data set is described as follows: CellTiter-Glow Luminescent Cell Viability assay, MDA-MB-468 (breast). It is filed as cell-based. The settings on record: Homo sapiens, 72 h, absolute IC50 (T/C=50%), read-out: IC50 against MDA-MB-468. The procedure: (§1) Antitumor activity of the compounds and doxorubicin as a positive control was assessed by using the CellTiter-Glow® Luminescent Cell Viability assay (Promega #G7572) according to the manufacturer's instructions. The compounds were tested at 5 or 6 concentrations in half-log increments (highest concentration 30 μM or 100 μM) in duplicate or triplicate well conditions.
(§2) Tumor cells were grown at 37° C. in a humidified atmosphere with 5% CO2 in RPMI 1640 or DMEM medium, supplemented with 10% (v/v) fetal calf serum and 50 μg/ml gentamicin for up to 20 passages, and were passaged once or twice weekly. Cells were harvested using TrypLE or PBS buffer containing 1 mM EDTA, and the percentage of viable cells was determined using a CASY Model TI cell counter (OMNI Life Science). Cells were harvested from exponential phase cultures, counted and plated in 96 well flat-bottom microtiter plates at a cell density depending on the cell line's growth rate (4,000-20,000 cells/well depending on the cell line's growth rate, up to 60,000 for hematological cancer cell lines) in RPMI 1640 or DMEM medium supplemented with 10% (v/v) fetal calf serum and 50 μg/ml gentamicin (140 μl/well). […] Viability of cells was quantified by or CellTiter-Glow® Luminescent Cell Viability assay (Promega #G7572). Luminescence was measured with a microplate luminometer (Promega or PerkinElmer. […]

Data set [2] relates to KM12. As to the kind of experiment: CellTiter-Glow Luminescent Cell Viability assay, KM12 (colon). The settings on record: Homo sapiens, 72 h, absolute IC50 (T/C=50%), read-out: IC50 against KM12. In kind it is cell-based. The procedure: as §1, §2
Data set [3] has as its system U937. As to the kind of experiment: CellTiter-Glow Luminescent Cell Viability assay, U937 (lymphoma). It is filed as cell-based. The settings on record: Homo sapiens, U-937, 72 h, absolute IC50 (T/C=50%), read-out: IC50 against U937. How it is done:
as §1, §2

For data set [4], the system named is Farage. The data set is described as follows: CellTiter-Glow Luminescent Cell Viability assay, Farage (lymphoma). In kind it is cell-based. The following applies: 72 h, absolute IC50 (T/C=50%), read-out: IC50 against Farage. How it is done:
as §1, §2

In data set [5] the test system is A375. As to the kind of experiment: CellTiter-Glow Luminescent Cell Viability assay, A375 (melanoma). In kind it is cell-based. The following applies: Homo sapiens, A-375, 72 h, absolute IC50 (T/C=50%), read-out: IC50 against A375. How it is done:
as §1, §2
A general note: Cellular ATP, detected with luciferase, serves as a proxy for viable cell number.

For data set [6], the system named is SK-Mel-5. As to the kind of experiment: CellTiter-Glow Luminescent Cell Viability assay, SK-Mel-5 (melanoma). It is filed as cell-based. The settings on record: Homo sapiens, 72 h, absolute IC50 (T/C=50%), read-out: IC50 against SK-Mel-5. How it is done: as §1, §2
The subject of data set [7] is A2058. As to the kind of experiment: CellTiter-Glow Luminescent Cell Viability assay, A2058 (melanoma). In kind it is cell-based. The settings on record: Homo sapiens, 72 h, absolute IC50 (T/C=50%), read-out: IC50 against A2058. How it is done: as §1, §2
Data set [8] can be described thus: In vivo tolerability, maximum tolerated dose in nude mice. How it is done:
To assess the toxicity of the test compounds in vivo and to determine the maximum tolerated dose 4 BALB/c Nude male mice, 4-9 weeks old were injected intraperitoneally (i.p) with various doses of the drug or vehicle 2.5% DMSO/5% EtOH/20% PEG200 in saline. The volume of the injection was 5 ml/kg. The administered doses were confirmed by LC-UV or LC-MS/MS.
Mice were monitored for body weight before each injection and twice a day for clinical signs of toxicity.
All procedures related to animal handling, care and the treatment in the study were performed according to the guidelines of the Association for Assessment and Accreditation of Laboratory Animal Care (AAALAC).
In order to assess the in vivo toxicity of SND350 various doses of the drug were administered either as a single dose or repeat doses into nude mice.

Data set [9] deals with breast and colon carcinomas, lymphoma and melanoma cancer cell growth. As to the kind of experiment: CellTiter-Glow cell viability assay, cancer cell line panel (summary statement). In kind it is cell-based. The following applies: lymphoma and melanoma cell lines of Table 2, read-out: IC50s, cancer cell growth inhibition. How it is done: as §1, §2

SMILES strings stand for the structures.

Consider `COc1c(O)cc(O)c2c(=O)cc(-c3ccc(CCCCC[P+](c4ccccc4)(c4ccccc4)c4ccccc4)cc3)oc12.[Br-]` [SND350, (5-(4-(5,7-dihydroxy-8-methoxy-4-oxo-4H-chromen-2-yl)phenyl)pentyl)triphenylphosphonium bromide], for which the IC50 in [1] amounted to 2.8 µM; in data set [2], 2.8 µM; in data set [3], 2.9 µM; in [4], 0.8 µM; in [5] it was 8.9 µM; in [6] it was 2.1 µM. Also, the IC50 is 6.5 µM in [7] and less than 10 µM in data set [9]. Further, in data set [8] (i.p., qod for a total of 7 injections, 10 mg/kg/inj), the “tolerability of multiple administrations” value is reported as “well tolerated”. The MTD (as a rule, the largest dose that counted as tolerated) in data set [8] (male, BALB/c Nude, mouse, in vivo, ip, single i.p. administration) was found to be 40 mg/kg.
